From the supplement of paper PMC13380429

Key:
Vero E6 [1] = assay: cell viability relative to DMSO; higher = less toxic; conditions: 72 h
HepG2 [2] = assay: as above; conditions: 72 h
Caco-2 [3] = assay: as above; conditions: 72 h
Calu-3 [4] = assay: as above; conditions: 72 h
U2OS [5] = assay: as above; conditions: 72 h
[6] = system: A549-ACE2 infected with SARS-CoV-2; assay: SARS-CoV-2 infection rate relative to DMSO; higher = more infection; conditions: 24 h
[7] = system: A549-ACE2 infected with SARS-CoV-2; assay: morphology score (similarity to uninfected cells); higher = more like uninfected cells; conditions: 24 h
Vero E6 [8] = assay: drug sensitivity score (DSS) for viability; higher = more toxic; extreme values may be limits of the assay; conditions: 72 h
HepG2 [9] = assay: as above; conditions: 72 h
Caco-2 [10] = assay: as above; conditions: 72 h
Calu-3 [11] = assay: as above; conditions: 72 h
U2OS [12] = assay: as above; conditions: 72 h
Vero E6 [13] = assay: relative viability EC50 (midpoint between 100% and the lowest measured viability); higher = less toxic; conditions: 72 h
HepG2 [14] = assay: as above; conditions: 72 h
Caco-2 [15] = assay: as above; conditions: 72 h
Calu-3 [16] = assay: as above; conditions: 72 h
U2OS [17] = assay: as above; conditions: 72 h
A549-ACE2 [18] = assay: drug-induced phospholipidosis relative to tamoxifen; higher = more phospholipidosis
[19] = system: A549-ACE2 infected with SARS-CoV-2; assay: cell count relative to DMSO; higher = less toxic; conditions: 24 h
A549-ACE2 [20] = assay: phospholipidosis EC50; higher = less potent phospholipidosis inducer

N#CC[C@@H](C1CCCC1)n1cc(-c2ncnc3[nH]ccc23)cn1 [ruxolitinib-(S)]
Conditions	SARS-CoV-2 infection rate, [6] [%]	cell count, [19] [%]	cell viability, Caco-2 [3] [%]	cell viability, Calu-3 [4] [%]	cell viability, HepG2 [2] [%]	cell viability, U2OS [5] [%]	cell viability, Vero E6 [1] [%]	morphology score, [7]
1 nM	–	–	103	91.4	101	100	98.5	–
10 nM	–	–	99	97.1	96	99.1	101	–
100 nM	–	–	106	99	92.3	99.3	98.2	–
0.3 µM	109	88	–	–	–	–	–	0.15
1000 nM	–	–	93.6	102	103.3	97.5	96.5	–
3 µM	110	100	–	–	–	–	–	0.17
10000 nM	–	–	99.6	112	97.4	95.8	94.05	–
10 µM	112	91	–	–	–	–	–	-0.08
30 µM	119	36	–	–	–	–	–	-0.15

Conditions	drug sensitivity score	relative viability EC50 [µM]
Caco-2 [10]	0	–
Caco-2 [15]	–	> 10
Calu-3 [11]	0	–
Calu-3 [16]	–	> 10
HepG2 [9]	0	–
HepG2 [14]	–	> 10
U2OS [12]	0	–
U2OS [17]	–	> 10
Vero E6 [8]	0	–
Vero E6 [13]	–	> 10

drug-induced phospholipidosis [%], A549-ACE2 [18]
Conditions	0.3 µM	0.833333 µM	3.33333 µM	6.66667 µM	10 µM	30 µM
24 h	-0.6	-1.86	-0.62	3.24	4.69	32.2
48 h	-3.03	-3.25	-1.5	0.99	1.91	–
72 h	-3.98	-4.86	-3.52	-0.549	1.82	–

COC[C@H](NC(=O)c1cnc(C)s1)C(=O)N[C@@H](COC)C(=O)N[C@@H](Cc1ccccc1)C(=O)[C@@]1(C)CO1 [oprozomib]
Conditions	SARS-CoV-2 infection rate, [6] [%]	cell count, [19] [%]	cell viability, Caco-2 [3] [%]	cell viability, Calu-3 [4] [%]	cell viability, HepG2 [2] [%]	cell viability, U2OS [5] [%]	cell viability, Vero E6 [1] [%]	morphology score, [7]
1 nM	–	–	103	92.4	114	103	106	–
10 nM	–	–	94.8	102	99.3	93.8	103	–
100 nM	–	–	18.9	25.4	27.5	53.9	72.4	–
0.1 µM	76	87	–	–	–	–	–	0.41
0.3 µM	95	83	–	–	–	–	–	0.31
1000 nM	–	–	8.5	4.2	4.6	0.2	16.3	–
1 µM	64	74	–	–	–	–	–	0.24
3 µM	33	59	–	–	–	–	–	0.24
10000 nM	–	–	5.5	4.5	-0.1	-0.3	4.2	–

Conditions	drug sensitivity score	relative viability EC50 [µM]
Caco-2 [10]	27.4	–
Caco-2 [15]	–	0.0409
Calu-3 [11]	25.9	–
Calu-3 [16]	–	0.0607
HepG2 [9]	26.4	–
HepG2 [14]	–	0.0661
U2OS [12]	23.3	–
U2OS [17]	–	0.109
Vero E6 [8]	18.7	–
Vero E6 [13]	–	0.209

A549-ACE2 [18], 24 h
Conditions	drug-induced phospholipidosis [%]
0.3 µM	-19.8
0.833333 µM	-14.9
3.33333 µM	-36.6

O=C(COc1ccc(Cl)cc1)N[C@H]1CC[C@H](NC(=O)COc2ccc(Cl)cc2)CC1 [ISRIB]
Conditions	SARS-CoV-2 infection rate, [6] [%]	cell count, [19] [%]	cell viability, Caco-2 [3] [%]	cell viability, Calu-3 [4] [%]	cell viability, HepG2 [2] [%]	cell viability, U2OS [5] [%]	cell viability, Vero E6 [1] [%]	morphology score, [7]
1 nM	–	–	98.5	107	98.4	99.7	92.2	–
10 nM	–	–	97.1	88.2	100	96.2	98.4	–
100 nM	–	–	95.1	101	105	99	97.2	–
0.3 µM	100	99	–	–	–	–	–	-0.01
1000 nM	–	–	96.6	101	100	96	95.2	–
3 µM	96	103	–	–	–	–	–	0.03
10000 nM	–	–	106	99.1	96.3	99.2	91.3	–
10 µM	103	99	–	–	–	–	–	0.01
30 µM	108	99	–	–	–	–	–	-0.2

Conditions	drug sensitivity score	relative viability EC50 [µM]
Caco-2 [10]	0	–
Caco-2 [15]	–	> 10
Calu-3 [11]	0	–
Calu-3 [16]	–	> 10
HepG2 [9]	0	–
HepG2 [14]	–	> 10
U2OS [12]	0	–
U2OS [17]	–	> 10
Vero E6 [8]	0	–
Vero E6 [13]	–	> 10

drug-induced phospholipidosis [%], A549-ACE2 [18]
Conditions	0.3 µM	0.833333 µM	3.33333 µM	6.66667 µM	10 µM	30 µM
24 h	-0.51	0.36	-2.23	-2.98	3.29	-1.76
48 h	0.57	-0.91	-1.5	0.01	2.91	2.54
72 h	-0.626	-0.0303	-1	1.31	3.63	5.83

Cc1csc(NC(=O)CSc2ccc(-c3ccccc3)nn2)n1
Conditions	SARS-CoV-2 infection rate, [6] [%]	cell count, [19] [%]	cell viability, Caco-2 [3] [%]	cell viability, Calu-3 [4] [%]	cell viability, HepG2 [2] [%]	cell viability, U2OS [5] [%]	cell viability, Vero E6 [1] [%]	morphology score, [7]
1 nM	–	–	92.1	85	97.8	98	101	–
10 nM	–	–	93.4	99.1	109	97.3	102	–
100 nM	–	–	103	104	90.4	102	99.1	–
0.3 µM	105	97	–	–	–	–	–	-0.03
1000 nM	–	–	97	99.3	89.1	99.3	105	–
3 µM	88	97	–	–	–	–	–	0.29
10000 nM	–	–	104	108	87.4	104	94.5	–
10 µM	92	107	–	–	–	–	–	0.25
30 µM	84	100	–	–	–	–	–	0.25

Conditions	drug sensitivity score	relative viability EC50 [µM]
Caco-2 [10]	0	–
Caco-2 [15]	–	> 10
Calu-3 [11]	0	–
Calu-3 [16]	–	> 10
HepG2 [9]	1.2	–
HepG2 [14]	–	> 10
U2OS [12]	0	–
U2OS [17]	–	> 10
Vero E6 [8]	0	–
Vero E6 [13]	–	> 10

drug-induced phospholipidosis [%], A549-ACE2 [18]
Conditions	0.3 µM	0.833333 µM	3.33333 µM	6.66667 µM	10 µM	30 µM
24 h	1.93	-1.81	-0.96	2.15	1.89	7.11
48 h	2.87	0.35	1.94	5.23	4.85	15.6
72 h	2.21	0.253	3.17	3.1	6.16	24.6

CN1Cc2ccccc2[C@@H]2c3cccc4[nH]cc(c34)C[C@H]21 [CY208-243]
Conditions	SARS-CoV-2 infection rate [%]	cell count [%]	cell viability [%]	morphology score	phospholipidosis EC50 [µM]
A549-ACE2 [20], 24 h	–	–	–	–	8.69
A549-ACE2 [20], 48 h	–	–	–	–	27.8
Caco-2 [3], 1 nM	–	–	99.1	–	–
Caco-2 [3], 10 nM	–	–	100	–	–
Caco-2 [3], 100 nM	–	–	94.8	–	–
Caco-2 [3], 1000 nM	–	–	110	–	–
Caco-2 [3], 10000 nM	–	–	82.8	–	–
Calu-3 [4], 1 nM	–	–	92.8	–	–
Calu-3 [4], 10 nM	–	–	99.8	–	–
Calu-3 [4], 100 nM	–	–	93.8	–	–
Calu-3 [4], 1000 nM	–	–	96.5	–	–
Calu-3 [4], 10000 nM	–	–	90.4	–	–
HepG2 [2], 1 nM	–	–	102	–	–
HepG2 [2], 10 nM	–	–	96.9	–	–
HepG2 [2], 100 nM	–	–	92.1	–	–
HepG2 [2], 1000 nM	–	–	99.5	–	–
HepG2 [2], 10000 nM	–	–	59.7	–	–
U2OS [5], 1 nM	–	–	95.7	–	–
U2OS [5], 10 nM	–	–	99.4	–	–
U2OS [5], 100 nM	–	–	97.3	–	–
U2OS [5], 1000 nM	–	–	100	–	–
U2OS [5], 10000 nM	–	–	83.3	–	–
Vero E6 [1], 1 nM	–	–	99	–	–
Vero E6 [1], 10 nM	–	–	92.7	–	–
Vero E6 [1], 100 nM	–	–	97	–	–
Vero E6 [1], 1000 nM	–	–	99.2	–	–
Vero E6 [1], 10000 nM	–	–	83.8	–	–
[6], 0.3 µM	100	–	–	–	–
[6], 3 µM	99	–	–	–	–
[6], 10 µM	87	–	–	–	–
[6], 30 µM	52	–	–	–	–
[7], 0.3 µM	–	–	–	-0.03	–
[7], 3 µM	–	–	–	0.26	–
[7], 10 µM	–	–	–	0.44	–
[7], 30 µM	–	–	–	0.69	–
[19], 0.3 µM	–	97	–	–	–
[19], 3 µM	–	77	–	–	–
[19], 10 µM	–	82	–	–	–
[19], 30 µM	–	80	–	–	–

Conditions	drug sensitivity score	relative viability EC50 [µM]
Caco-2 [10]	0.2	–
Caco-2 [15]	–	> 10
Calu-3 [11]	0	–
Calu-3 [16]	–	> 10
HepG2 [9]	2.1	–
U2OS [12]	0.3	–
U2OS [17]	–	> 10
Vero E6 [8]	0.4	–
Vero E6 [13]	–	> 10

drug-induced phospholipidosis [%], A549-ACE2 [18]
Conditions	0.3 µM	0.833333 µM	3.33333 µM	6.66667 µM	10 µM	30 µM
24 h	2.51	3.29	14.1	30.7	58.4	88.2
48 h	1.19	3.01	17.4	28.4	77.3	–
72 h	4.71	3.9	–	–	–	–
